According to patent US12227535B2, “Triterpene saponins, methods of synthesis and uses thereof” (SLOAN KETTERING INSTITUTE FOR CANCER RESEARCH, priority 2008, dated 2025):

Tests used:
GD3 ganglioside = assay: Anti-GD3 antibody ELISA after vaccination of mice with GD3-KLH conjugate plus QS-21 adjuvants (Example 4); assay type: in vivo, mice (C57BL/6J, female); conditions: after 3 weekly vaccinations with GD3-KLH; adjuvant doses 10 and 20 μg; compared with GD3-KLH alone
Procedure: Using similar protocols, the immuno-potentiating properties of the synthetic adjuvants SQS-21-Api and SQS-21-Xyl were evaluated in mice (C57BL/6J, female, six weeks of age). […]
Groups of five mice were immunized with the melanoma antigen GD3 ganglioside conjugated to KLH (GD3-KLH) at a 10 μg antigen dose per vaccination. […] Immunopotentiation was assessed by testing for the presence of antibody against GD3 and KLH by ELISA, and against a tumor cell-line SK-MEL-28, expressing GD3 antigen, by FACS.
The antibody response after vaccination with GD3-KLH conjugate with or without adjuvant was determined with an ELISA assay using either GD3 ganglioside or KLH protein as target. […] After the third vaccination, no IgG antibodies against GD3 were detected; however, after the fourth immunization IgM and IgG antibody titers were induced in most mice. […]

[1] = Toxicity: loss of weight after each injection; assay type: in vivo, mice (C57BL/6J, female); conditions: monitored 0 h, 24 h, 48 h, 72 h after each injection; GD3-KLH 10 μg; adjuvant 20 μg; 4-week duration
Procedure: As a measure of toxicity, loss of weight was monitored at 0 h, 24 h, 48 h and 72 h after each injection. […] As the negative control, vaccinations employing GD3-KLH only (no adjuvant) led to no appreciable weight loss after each injection.

[2] = in vivo; cited from earlier work

Compound	IgM antibody response against GD3 (antibody titers) (GD3 ganglioside)	weight loss after each injection [1]	maximum dose [2]
CC[C@H](C)[C@H](C[C@H](O)CC(=O)O[C@H]1C(C)O[C@@H](OC(=O)[C@]23CCC(C)(C)CC2C2=CCC4C5(C)CC[C@H](O[C@@H]6OC(C(=O)O)[C@@H](O)[C@H](O[C@@H]7OC[C@@H](O)[C@H](O)C7O)C6O[C@@H]6OC(CO)[C@H](O)[C@H](O)C6O)[C@](C)(C=O)[C@@H]5CC[C@]4(C)[C@]2(C)CC3O)C(O[C@@H]2OC(C)[C@H](O[C@@H]3OC[C@@H](O)C(O[C@@H]4OC[C@@H](O)C(O)C4O)C3O)C(O)C2O)C1O)OC(=O)C[C@@H](O)C[C@H](O[C@@H]1O[C@@H](CO)C(O)C1O)[C@@H](C)CC (some centres unmarked) [SQS-21-Xyl, QS-21-Xyl]	significantly higher than the group with GD3-KLH alone	very similar	
CC[C@H](C)[C@H](C[C@H](O)CC(=O)O[C@H]1C(C)O[C@@H](OC(=O)[C@]23CCC(C)(C)CC2C2=CCC4C5(C)CC[C@H](O[C@@H]6OC(C(=O)O)[C@@H](O)[C@H](O[C@@H]7OC[C@@H](O)[C@H](O)C7O)C6O[C@@H]6OC(CO)[C@H](O)[C@H](O)C6O)[C@](C)(C=O)[C@@H]5CC[C@]4(C)[C@]2(C)CC3O)C(O[C@@H]2OC(C)[C@H](O[C@@H]3OC[C@@H](O)C(O[C@@H]4OCC(O)(CO)[C@@H]4O)C3O)C(O)C2O)C1O)OC(=O)C[C@@H](O)C[C@H](O[C@@H]1O[C@@H](CO)C(O)C1O)[C@@H](C)CC (some centres unmarked) [SQS-21-Api, QS-21-Api]	significantly higher than the group with GD3-KLH alone	very similar	
QS-21			≤ 50 µg
